Where two headings read alike, the source gives them in different places.
Key:
recombinant BRD4 BD1 = target: T1, recombinant BRD4 BD1 (Homo sapiens, UniProt O60885); test: Competitive fluorescence-polarization (FP) binding assay, BRD4 BD1
T1 construct: for recombinant BRD4 BD1 and BRD4 BD2 proteins

recombinant BRD4 BD2 = target: T2, recombinant BRD4 BD2 (Homo sapiens, UniProt O60885); test: Competitive fluorescence-polarization (FP) binding assay, BRD4 BD2
T2 construct: for recombinant BRD4 BD1 and BRD4 BD2 proteins

RS4;11 = test: Cell growth inhibition, 4-day proliferation assay, RS4;11; assay type: cell-based; settings: Homo sapiens
Experimental: The effect of representative Compounds of the Disclosure on cell viability was determined in a 4-day proliferation assay. Cells were maintained in the appropriate culture medium with 100/0 FBS at 37° C. and an atmosphere of 5% CO2. All the cell lines were used within three months of thawing fresh vials.
In general, cells were seeded in 96-well flat bottom (Corning COSTAR, Corning, N.Y., cat #3595) or white opaque cell culture plates (BD Falcon, cat #353296) at a density of 3,000-10,000 cells/well in 75 μl of culture medium. Compounds were serially diluted in the appropriate medium, and 75 μl of the diluted compounds were added to the appropriate wells of the cell plate. After the addition of compounds, the cells were incubated at 37° C. in an atmosphere of 5% CO2 for 4 days. Cell viability was determined using the CellTiter-Glo® Luminescent Cell Viability Assay Kit (Promega, Madison, Wis.) for leukemia cells and WST (2-(2-methoxy-4-nitrophenyl)-3-(4-nitrophenyl)-5-(2,4-disulfophenyl)-2H-tetrazolium, monosodium salt) Cell Counting-8 Kit (Dojindo Molecular Technologies, Inc., Rockville, Md.) for adherent cells according to the manufacturers' instructions.
For WST assay (adherent cells), WST-8 reagent was added to each well at a final concentration of 10% (v/v), and then the plates were incubated at 37° C. for 1-2 hours for color development. The absorbance was measured at 450 nm using a SPECTRAmax PLUS plate reader (Molecular Devices, Sunnyvale, Calif.). The readings were normalized to the DMSO-treated cells and the half maximal inhibitory concentration (IC50) was calculated by nonlinear regression (four parameters sigmoid fitted with variable slope, least squares fit, and no constraint) analysis using the GraphPad Prism 5 software (GraphPad Software, La Jolla, Calif.).
For CellTiter-Glo assay (suspension cells), 100 μl of CellTiter-Glo® Reagent was added to each well, and then the plates were incubated at room temperature for 10-20 minutes. The luminescent signal was measured using a Tecan Infinite M1000 multimode microplate reader (Tecan, Morrisville, N.C.). The readings were normalized to the DMSO-treated cells and the IC50 was calculated by nonlinear regression (four parameters sigmoid fitted with variable slope, least squares fit, and no constraint) analysis using the GraphPad Prism 5 software. See US 2014/0256706.
For a number of representative compounds in Table 5, their IC50 values in cell growth inhibition activity in the RS4;11 and MOLM-13 human leukemia cell lines and the MDA-MB-231 breast cancer cell line were evaluated using the WST-8 assay described in EXAMPLE 7, with the data shown in Table 7.

MOLM-13 = test: Cell growth inhibition, 4-day proliferation assay, MOLM-13; assay type: cell-based; settings: Homo sapiens
BRD2 BD1 = BRD2 BD1 (Homo sapiens, UniProt P25440); test: Competitive FP binding assay, BRD2 BD1; settings: Table 8, read-out: IC50 (nM) in FP assays BRD2 BD1
Sequence of BRD2 BD1 (P25440 74-180 limits assumed): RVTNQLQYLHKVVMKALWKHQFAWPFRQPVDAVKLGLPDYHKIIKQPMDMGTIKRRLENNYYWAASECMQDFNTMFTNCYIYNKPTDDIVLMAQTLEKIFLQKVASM
Experimental: (§1) Fluorescence Polarization (FP) competitive binding studies were carried out using a FAM labeled fluorescent probe, see, e.g., Cpd. No. 350 of US 2014/0256706, to determine binding affinities of representative Compounds of the Disclosure for recombinant BRD4 BD1 and BRD4 BD2 proteins. Equilibrium dissociation constants (Kd) values of the fluorescent probe to BRD4 BD1 and BD2 proteins were determined from protein saturation experiments by monitoring the total fluorescence polarization of mixtures composed with the fluorescent probe at a fixed concentration and proteins with increasing concentrations up to full saturation. Serial dilutions of testing proteins were mixed with the fluorescent probe to a final volume of 200 μl in the assay buffer (100 mM phosphate buffer, pH=6.5, 0.01% Triton X-100 (Sigma, 282103) being added right before assays). Final fluorescent probe concentration was 1.5 nM for both proteins. Plates were incubated at room temperature for 30 minutes with gentle shaking to assure equilibrium. FP values in millipolarization units (mP) were measured using the Infinite M-1000 plate reader (Tecan U.S., Research Triangle Park, N.C.) in Microfluor 1 96-well, black, round-bottom plates (Thermo Scientific, Waltham, Mass.) at an excitation wavelength of 485 nm and an emission wavelength of 530 nm. Kd values of the fluorescent probe, which were calculated by fitting the sigmoidal dose-dependent FP increases as a function of protein concentrations using Graphpad Prism 6.0 software (Graphpad Software, San Diego, Calif.), are 5.5 and 3.0 nM to BDR4 BD1 and 2, respectively.
(§2) The IC50 and Ki values of compounds were determined in a competitive binding experiment. See US 2014/0256706. Mixtures of 10 μl of the tested compounds in assay buffer with 40% Ethylene Glycol and 190 μl of preincubated protein/probe complex solution in the assay buffer (100 mM potassium phosphate, pH 6.5, 0.01% Triton X-100) were added into assay plates which were incubated at room temperature for 30 minutes with gentle shaking. Final concentrations of proteins were 10 and 6 nM in assays for BRD4 BD1 and BD2, respectively. Final probe concentration is 1.5 nM in both assays. […] FP values were measured as described above. IC50 values were determined by nonlinear regression fitting of the competition curves. Instead of being calculated from IC50 values as described before. […]
(§3) For several representative compounds in Table 5, their binding affinities to BRD2 BD1 and BD2 proteins, and BRD3 BD1 and BD2 proteins were determined using the Competitive Fluorescence-Polarization (FP) Assays described in Example 6, with the data included in Table 8.

BRD2 BD2 = BRD2 BD2 (Homo sapiens, UniProt P25440); test: Competitive FP binding assay, BRD2 BD2; settings: Table 8, read-out: IC50 (nM) in FP assays BRD2 BD2
Sequence of BRD2 BD2 (P25440 344-453 limits assumed): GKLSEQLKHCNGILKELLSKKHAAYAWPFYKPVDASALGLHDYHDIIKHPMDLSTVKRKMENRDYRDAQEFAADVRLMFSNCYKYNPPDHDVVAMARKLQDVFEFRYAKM
Experimental: as §1, §2, §3

BRD3 BD1 = BRD3 BD1 (Homo sapiens, UniProt Q15059); test: Competitive FP binding assay, BRD3 BD1; settings: Table 8, read-out: IC50 (nM) in FP assays BRD3 BD1
Sequence of BRD3 BD1 (Q15059 34-140 limits assumed): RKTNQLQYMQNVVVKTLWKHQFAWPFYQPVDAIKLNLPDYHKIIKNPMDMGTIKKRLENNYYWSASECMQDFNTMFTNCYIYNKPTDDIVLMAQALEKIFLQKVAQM
Experimental: as §1, §2, §3

BRD3 BD2 = BRD3 BD2 (Homo sapiens, UniProt Q15059); test: Competitive FP binding assay, BRD3 BD2; settings: Table 8, read-out: IC50 (nM) in FP assays BRD3 BD2
Sequence of BRD3 BD2 (Q15059 306-415 limits assumed): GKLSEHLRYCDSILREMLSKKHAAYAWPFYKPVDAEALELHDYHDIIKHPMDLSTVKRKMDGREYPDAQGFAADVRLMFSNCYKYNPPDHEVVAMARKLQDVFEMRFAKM
Experimental: as §1, §2, §3

[1] = Plasma exposure after oral gavage in mice, LC-MS/MS; assay type: in vivo; settings: mouse, plasma, mice, oral gavage 25 mg/kg; for concentration at 1 h: read-out: Plasma concentration (ng/mL) 1 h; for concentration at 3 h: read-out: Plasma concentration (ng/mL) 3 h; for concentration at 6 h: read-out: Plasma concentration (ng/mL) 6 h
Experimental: For a number of representative compounds in Table 5, their plasma exposures with oral administration in mice via oral gavage were determined by LC-MS/MS, with the data shown in Table 9.

MDA-MB-231 = test: Cell growth inhibition, 4-day proliferation assay, MDA-MB-231; assay type: cell-based; settings: Homo sapiens
Method in brief: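 WST-8 colorimetric read-out (absorbance 450 nm after 1-2 h) after 4-day compound exposure of 3,000-10,000 cells/well at 37 °C; IC50 from variable-slope sigmoid fit of DMSO-normalized signal.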

[2] = competitive FP, Table 6, read-out: IC50 as determinined in FP assays BRD4 BD1
[3] = competitive FP, Table 6, read-out: IC50 as determinined in FP assays BRD4 BD2
[4] = RS4-11, WST-8 assay, Table 7, read-out: Cell growth inhibition (IC50 (nM)) RS4;11
[5] = MOLM-13, WST-8 assay, Table 7, read-out: Cell growth inhibition (IC50 (nM)) MOLM-13
[6] = RS4-11, 96 h, read-out: Cell IC50 (nM) RS4;11

Compound	IC50 (recombinant BRD4 BD1; [2]) [nM]	IC50 (recombinant BRD4 BD2; [3]) [nM]	IC50 (RS4;11; [4]) [nM]	IC50 (MOLM-13; [5]) [nM]	IC50 (BRD2 BD1) [nM]	IC50 (BRD2 BD2) [nM]	IC50 (BRD3 BD1) [nM]	IC50 (BRD3 BD2) [nM]	concentration at 1 h [1] [ng/mL]	concentration at 3 h [1] [ng/mL]	concentration at 6 h [1] [ng/mL]	IC50 (recombinant BRD4 BD1) [nM]	IC50 (recombinant BRD4 BD2) [nM]	IC50 (RS4;11; [6]) [nM]	IC50 (MOLM-13; MOLM-13, 96 h, read-out: Cell IC50 (nM) MOLM13) [nM]	IC50 (MDA-MB-231; MDA-MB-231, 96 h, read-out: Cell IC50 (nM) MDA-MB-231) [nM]	IC50 (MDA-MB-231; MDA-MB-231, WST-8 assay, Table 7, read-out: Cell growth inhibition (IC50 (nM)) MDA-MB-231) [nM]
Cc1c(C#CC2CCOCC2)sc2c1C(c1ccc(Cl)cc1)=N[C@@H](CC(=O)N1CCC(O)CC1)c1nnc(C)n1-2 [Compound 159, (S)-2-(4-(4-chlorophenyl)-3,9-dimethyl-2-((tetrahydro-2H-pyran-4-yl)ethynyl)-6H-thieno[3,2-f][1,2,4]triazolo[4,3-a][1,4]diazepin-6-yl)-1-(4-hydroxypiperidin-1-yl)ethan-1-one]	36.2	47.6	39.5	35.4	34.4	143	76.5	127	3460	2120	1700	–	–	–	–	–	–
Cc1c(C#CC2CCOCC2)sc2c1C(c1ccc(Cl)cc1)=N[C@@H](CC(=O)N1CCC(C)(O)CC1)c1nnc(C)n1-2 [Compound 157, (S)-2-(4-(4-chlorophenyl)-3,9-dimethyl-2-((tetrahydro-2H-pyran-4-yl)ethynyl)-6H-thieno[3,2-f][1,2,4]triazolo[4,3-a][1,4]diazepin-6-yl)-1-(4-hydroxy-4-methylpiperidin-1-yl)ethan-1-one]	55.2	50.3	37	25.4	39.3	146	85.1	120	4630	3760	1190	–	–	–	–	–	–
Cc1c(C#Cc2cnn(C)c2)sc2c1C(c1ccc(Cl)cc1)=NCc1nnc(C)n1-2 [compound 23, 4-(4-chlorophenyl)-3,9-dimethyl-2-((1-methyl-1H-pyrazol-4-yl)ethynyl)-6H-thieno[3,2-f][1,2,4]triazolo[4,3-a][1,4]diazepine]	–	–	–	–	–	–	–	–	–	–	–	14.3	63.1	> 100	> 100	–	–
Cc1c(C#CC2CCOCC2)sc2c1C(c1ccc(Cl)cc1)=N[C@@H](CC(=O)N1CC(C)(O)C1)c1nnc(C)n1-2 [Compound 158, (S)-2-(4-(4-chlorophenyl)-3,9-dimethyl-2-((tetrahydro-2H-pyran-4-yl)ethynyl)-6H-thieno[3,2-f][1,2,4]triazolo[4,3-a][1,4]diazepin-6-yl)-1-(3-hydroxy-3-methylazetidin-1-yl)ethan-1-one]	48.3	69.1	43	24.5	40.2	182	63.7	220	3380	1810	946	–	–	–	–	–	–
Cc1c(C#Cc2ccc3[nH]ncc3c2)sc2c1C(c1ccc(Cl)cc1)=NCc1nnc(C)n1-2 [compound 41, 2-((1H-indazol-5-yl)ethynyl)-4-(4-chlorophenyl)-3,9-dimethyl-6H-thieno[3,2-f][1,2,4]triazolo[4,3-a][1,4]diazepine]	–	–	–	–	–	–	–	–	–	–	–	–	–	278	–	680	–
Cc1nnc(C[C@@H]2N=C(c3ccc(Cl)cc3)c3c(sc(C#CC4CCOCC4)c3C)-n3c(C)nnc32)o1 [Compound 145, (S)-2-((4-(4-chlorophenyl)-3,9-dimethyl-2-((tetrahydro-2H-pyran-4-yl)ethynyl)-6H-thieno[3,2-f][1,2,4]triazolo[4,3-a][1,4]diazepin-6-yl)methyl)-5-methyl-1,3,4-oxadiazole]	16.3	47.5	13.3	11.3	26	50.7	38.6	161	6620	4880	629	–	–	–	–	–	105
